Measurements: publication PMC9338973, “Rosmarinus officinalis L. hexane extract: phytochemical analysis, nanoencapsulation, and in silico, in vitro, and in vivo anti-photoaging potential evaluation” (Scientific Reports, 2022)
Converted amounts (≈) assume the structure as drawn. “And” between values parts separate entries of the source, which are not always exact repeats. Equal entries are not always repeated.

Experiments:
[1] = target: T1, Porcine pancreatic elastase (Sus scrofa, UniProt P00772); assay: Anti-elastase assay (EnzCheck, fluorimetric); assay type: biochemical
T1 construct: purchased Molecular Probes
T1 sequence (P00772 27-266): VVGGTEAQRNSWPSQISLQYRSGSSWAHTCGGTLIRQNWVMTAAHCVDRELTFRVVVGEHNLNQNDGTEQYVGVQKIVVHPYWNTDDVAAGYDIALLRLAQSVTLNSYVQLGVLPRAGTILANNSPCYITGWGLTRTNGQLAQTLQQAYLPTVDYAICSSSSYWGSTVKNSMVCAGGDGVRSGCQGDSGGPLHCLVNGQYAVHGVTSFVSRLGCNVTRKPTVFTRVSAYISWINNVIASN
Method: The elastase inhibitory activity was assessed fluorimetrically using the EnzCheck® elastase assay kit (Molecular Probes, Laiden, Netherlands). A 1 mg/mL stock solution of the substrate (DQ elastin) was prepared in deionized water. Porcine pancreatic elastase stock solution was prepared in deionized water at 100 U/mL and dilutions were made in Tris–HCL buffer. Pre-incubation of 50 µL of different dilutions of the extract (inhibitor) with 100 µL of the enzyme was done for 15 min followed by the addition of the substrate (50 µL). Controls were prepared with buffer instead of extract. Fluorescence intensity was continuously measured for 20 min in a fluorescence microplate reader equipped with standard fluorescein filters (λex 505 nm, λem 515 nm). Subtraction of background fluorescence was done in no-enzyme wells. 1,10-Phenathrolinewas used as a standard elastase inhibitor. The IC50 is the concentration of the extract required to inhibit 50% of elastase activity.
The percentage of elastase inhibition(%)=(1-S/C)×100 where S is the corrected fluorescence of the extract samples and C is the corrected fluorescence of the control.

collagenase = assay: Anti-collagenase assay (fluorimetric, BODIPY-gelatin); assay type: biochemical
Method: The evaluation of collagenase inhibitory activity was performed fluorimetrically in a microplate reader. Briefly, the self-quenched BODIPY conjugate of gelatin (Type B) was used as a fluorogenic substrate to monitor the activity of collagenase (Biovision, CA, USA). Collagenase stock solution was prepared in 50 mM Tricine buffer at 0.8 U/mL and the substrate (BODIPY) was dissolved in Tricine buffer to 2 mM. One microliter of different concentrations of the extract (1, 10, 100, and 1000 µg/mL) was incubated with the 5 µL collagenase in buffer and 44 µL Tricine buffer for 15 min before adding the substrate. […] The reaction is initiated by mixing two µL of the substrate with the previous reaction mixture. Negative controls were prepared with the buffer. Fluorescence intensity was monitored (λex 490 nm, λem 520 nm, 515 nm cut-off) in a kinetic mode at 37 °C for 30–60 min.
The percentage of collagenase inhibition(%)=(1-S/C)×100 where S is the corrected fluorescence of the extract sample and C is the corrected fluorescence of the control.

[2] = DPPH radical scavenging activity
Method: The scavenging activity of the stable 2,2-diphenyl-1-picrylhydrazyl (DPPH) free radical by RHE was assessed according to the method reported by Boly et al.[112].

elastase enzyme = target: elastase enzyme; design: method as in doi:10.1517/13543776.3.8.1237; details: cited from earlier work
Cytotoxicity MTT assay = assay type: cell-based; details: human, WI-38 normal lung fibroblast cells, WI38 cell line, read-out: cytotoxic effect IC50
Method: The cytotoxicity of RHE extract was evaluated against human normal lung fibroblasts cell line WI-38 using MTT (3-(4,5-dimethylthiazol-2-yl)2,5-diphenyl tetrazolium bromide) assay[116] as recently described.

With `c1cnc2c(c1)ccc1cccnc12` [1,10-Phenanthroline] the IC50 [1] was 142 µM and the “IC50 Collagenase” value (collagenase) was 340.8 ± 17.3 µg/mL (≈ 1890 µM).

With `Cc1c(C)c2c(c(C)c1O)CCC(C)(C(=O)O)O2` (centres unmarked) [Trolox] the “DPPH (IC50, µg/mL)” value [2] was 6.1 ± 0.2 µg/mL and 6.11 ± 0.2 µg/mL.

For `CC1=CC(=O)[C@@H]2C[C@H]1C2(C)C` [Verbenone], the “IC50 of elastase enzyme inhibition” value (elastase enzyme) is listed as “picomolar range”.

Work on `Nc1nc2c(ncn2COCCO)c(=O)[nH]1` [acyclovir] yielded an IC50 (Cytotoxicity MTT assay) of 48.6 ± 3.2 µg/mL (≈ 216 µM).
